≈ marks a conversion by molar mass, not a printed value. Non-standard residues stand in square brackets, D forms with d. Residues, ends and D or L forms follow the SMILES beside them. *: point of attachment. NHPhenethyl = c1ccc(CCN*)cc1; β3hV = CC(C)[C@H](N)CC(=O)O; Cbz = O=C(OCc1ccccc1)*
Columns and labels:
P. vulgaris ATCC 6896 = assay: MIC/MBC broth microdilution, P. vulgaris; assay type: cell-based, Proteus vulgaris
Experimental: (§1) S. aureus (ATCC 29213),S. pyogenes (ATCC 19615),Streptococcus agalactiae (ATCC 27956),Escherichia coli (ATCC 25922),Proteus vulgaris (ATCC 6896),K. pneumoniae (ATCC 700603) andP. aeruginosa (ATCC 10145) reference strains, as well asStaphylococcus cohnii, Enterococcus faecalis, Staphylococcus schleiferi, Staphylococcus intermedius and Streptococcus mutans clinical isolates, were used to test the antibacterial activity of the peptidomimetics. Bacteria were aerobically cultured for 18 h at 37 °C in plates with sterilized brain heart infusion (BHI) broth (Sigma-Aldrich, USA) media mixed with bacteriological agar (Sigma-Aldrich, USA) using the streak plate method. After 18 h, BHI broth was inoculated to 0.5 on the McFarland scale and diluted to approximately 10^5 CFU/mL. To achieve a final stock concentration of 1024 μg/mL, the peptidomimetics were dissolved in sterile water, and 5–10% of absolute ethanol or dimethyl sulfoxide (DMSO) was added. The antibacterial activities were determined by using the standard broth microdilution method of the National Committee for Clinical Laboratory Standards. The process involved adding serially diluted peptidomimetics to consecutive wells of a 96-well microtiter plate (Brand, Germany) holding media with microorganisms. The inoculated plates treated with peptides were then placed in an incubator at 37 °C for 18 h. The MIC value was determined as the lowest concentration of peptidomimetic at which there was no obvious growth (equal or more than 90% of the untreated sample). […] The lowest concentration yielding growth in no more than 3 colonies, corresponding to at least a 99.9% kill rate, was taken as MBC. Each biological replicate included control wells with the addition of water, DMSO, and ethanol as respective solvent controls. All experiments were conducted with consistent adherence to growth and sterility controls and were performed at least in technical triplicate with three biological repeats.

[1] = tested on: human dermal fibroblast cell line (46BR.1N); assay: XTT cell proliferation assay, fibroblasts; assay type: cell-based; settings: for effect on proliferation, in words: XTT, 48 and 72 h, 0.01–150 μg/mL
Experimental: (§2) In our study, we used two distinct cell types: immortalized human HaCaT keratinocytes (DKFZ, Heidelberg, Germany) and a human dermal fibroblast cell line (46BR.1N). […] Cultures were maintained in a humidified atmosphere with 5% CO2 at 37 °C in 25 cm^2 culture flasks with the medium replenished every 2 days. The condition of the cells was monitored using optical microscopy. […] After 24 h of incubation, the medium was replaced with serum-free HG-DMEM containing appropriate concentrations of peptidomimetics. All solutions used in the experiments were prepared with double-distilled water or with the addition of ethanol under sterile conditions to ensure compatibility with the conditions of the bacteriological assay. For 72 h of incubation, half of the medium was replaced with fresh medium after 48 h, and cells were stimulated with peptides for a second time. The XTT cell proliferation assay was then performed according to the manufacturer’s instructions (Roche, Switzerland). Cells were treated with the peptides for either 48 or 72 h, followed by the addition of XTT reagent, and the plates were then incubated at 37 °C in a 5% CO2 environment for 4 h. Plate readings were taken using a standard plate reader at a wavelength of 490 nm (OD = 490 nm). […] Statistical significance was determined with a Mann–Whitney U test with statistical significance p ≤ 0.05. Analysis was performed with Statistica software, and graphs were prepared in GraphPad Prism.

S. cohnii c.i. = assay: MIC/MBC broth microdilution, S. cohnii; assay type: cell-based, Staphylococcus cohnii
Experimental: as §1

[2] = tested on: immortalized human keratinocytes (HaCaT); assay: LDH cytotoxicity test, keratinocytes; assay type: cell-based; settings: 48 h, 50, 100 and 150 μg/mL, vs 1% Triton X-100
Experimental: (§3) In our study, we used two distinct cell types: immortalized human HaCaT keratinocytes (DKFZ, Heidelberg, Germany) and a human dermal fibroblast cell line (46BR.1N). […] Cultures were maintained in a humidified atmosphere with 5% CO2 at 37 °C in 25 cm^2 culture flasks with the medium replenished every 2 days. The condition of the cells was monitored using optical microscopy.
(§4) Cell death in immortalized human keratinocytes (HaCaT) and fibroblasts (46BR.1N) was measured by quantifying the lactate dehydrogenase (LDH) activity using a commercial kit (Roche, Switzerland). Cells were seeded in 96-well plates at a density of 5000 cells per well in DMEM high glucose medium supplemented with 10% FBS. After 24 h of incubation, the medium was replaced with serum-free medium containing various concentrations of peptidomimetics (50, 100, and 150 μg/mL). After 48 h, supernatants were collected for LDH analysis. Plate readings were taken spectrophotometrically using a 450 nm wavelength. Cell death measurements were normalized to an untreated control (0%), with 1% Triton X-100 detergent used as a positive control to induce maximum LDH release, indicating maximal cytotoxicity. Statistical significance was determined with a Mann–Whitney U test with a statistical significance p ≤ 0.05. Analysis was performed with Statistica software (Krakow, Poland) and graphs were prepared in GraphPad Prism (Boston, USA).

S. schleiferi c.i. = assay: MIC/MBC broth microdilution, S. schleiferi; assay type: cell-based, Staphylococcus schleiferi
Experimental: as §1

E. faecalis c.i. = assay: MIC/MBC broth microdilution, E. faecalis; assay type: cell-based, Enterococcus faecalis
Experimental: as §1

fibroblasts (46BR.1N) = assay: LDH cytotoxicity test, fibroblasts; assay type: cell-based; settings: 48 h, 50, 100 and 150 μg/mL, vs 1% Triton X-100
Experimental: as §3, §4

[3] = tested on: immortalized human HaCaT keratinocytes; assay: XTT cell proliferation assay, keratinocytes; assay type: cell-based; settings: for effect on proliferation, in words: XTT, 48 and 72 h, 0.01–150 μg/mL
Experimental: as §2

S. mutans c.i. = assay: MIC/MBC broth microdilution, S. mutans; assay type: cell-based, Streptococcus mutans
Experimental: as §1

S. agalactiae ATCC 27956 = assay: MIC/MBC broth microdilution, S. agalactiae; assay type: cell-based, Streptococcus agalactiae; settings: S. agalactiae, water additive EtOH
Experimental: as §1

P. aeruginosa ATCC 10145 = assay: MIC/MBC broth microdilution, P. aeruginosa; assay type: cell-based
Experimental: as §1

[4] = tested on: K. pneumoniae ATCC 700603; assay: MIC/MBC broth microdilution, K. pneumoniae; assay type: cell-based
Experimental: as §1

S. aureus ATCC 43300 = assay: MIC/MBC broth microdilution, S. aureus; assay type: cell-based, Staphylococcus aureus; settings: S. aureus
S. pyogenes ATCC 19615 = assay: MIC/MBC broth microdilution, S. pyogenes; assay type: cell-based, Streptococcus pyogenes; settings: S. pyogenes
Experimental: as §1

E. coli ATCC 25922 = assay: MIC/MBC broth microdilution, E. coli; assay type: cell-based, Escherichia coli
Experimental: as §1

[5] = up to 150 μg/mL, A-193 and A-179 after 48 h

For `CC(C)C[C@H](NC(=O)[C@H](CCCNC(=N)N)NC(=O)OCc1ccccc1)C(=O)N[C@H](CC(=O)NCCc1ccccc1)C(C)C` [Compound A-152] (Cbz-Arg-Leu-[β3hV]-NHPhenethyl), the MIC (P. vulgaris ATCC 6896; water additive DMSO) was > 512 µg/mL, the MIC (P. vulgaris ATCC 6896; water additive EtOH) was > 512 µg/mL and the “effect on proliferation, in words” value [1] was “pro-proliferating effect at lower concentrations followed by an antiproliferative effect at higher concentrations”. The MBC (S. cohnii c.i.; water additive DMSO) was 512 µg/mL (≈ 803 µM), the MBC (S. cohnii c.i.; water additive EtOH) was 512 µg/mL (≈ 803 µM) and the “cytotoxicity (LDH)” value [2] was ≤ 50%. The MIC (S. schleiferi c.i.; water additive DMSO) was > 512 µg/mL, the MIC (S. schleiferi c.i.; water additive EtOH) was > 512 µg/mL and the MBC (E. faecalis c.i.; water additive DMSO) was > 512 µg/mL. It also gave an MIC (E. faecalis c.i.; water additive DMSO) of 512 µg/mL (≈ 803 µM), an MBC (E. faecalis c.i.; water additive EtOH) of 512 µg/mL (≈ 803 µM) and an MIC (E. faecalis c.i.; water additive EtOH) of 512 µg/mL (≈ 803 µM). For the same compound, the “cytotoxicity (LDH)” value (fibroblasts (46BR.1N)) was ≤ 50%, the “effect on proliferation, in words” value [3] was “pro-proliferating effect at lower concentrations followed by an antiproliferative effect at higher concentrations” and the MIC (S. mutans c.i.; water additive DMSO) was > 512 µg/mL. For the same compound, the MIC (S. mutans c.i.; water additive EtOH) was > 512 µg/mL, the MBC (S. agalactiae ATCC 27956) was 256 µg/mL (≈ 401 µM) and the MIC (P. aeruginosa ATCC 10145; water additive DMSO) was > 512 µg/mL. For the same compound, the MIC (P. aeruginosa ATCC 10145; water additive EtOH) was > 512 µg/mL, the MIC ([4]; water additive DMSO) was > 512 µg/mL and the MIC ([4]; water additive EtOH) was > 512 µg/mL. It also gave an MBC (S. aureus ATCC 43300; H2O) of 256 µg/mL (≈ 401 µM), an MBC (S. aureus ATCC 43300; water additive DMSO) of 512 µg/mL (≈ 803 µM) and an MIC (S. aureus ATCC 43300; water additive DMSO) of 512 µg/mL (≈ 803 µM). It also gave an MBC (S. pyogenes ATCC 19615; H2O) of 256 µg/mL (≈ 401 µM), an MBC (S. pyogenes ATCC 19615; water additive DMSO) of 256 µg/mL (≈ 401 µM) and an MBC (S. pyogenes ATCC 19615; water additive EtOH) of 126 µg/mL (≈ 198 µM). For the same compound, the MIC (E. coli ATCC 25922; water additive DMSO) was > 512 µg/mL and the MIC (E. coli ATCC 25922; water additive EtOH) was > 512 µg/mL.

`CC(C)[C@@H](CNC(=O)C(=Cc1ccccc1)c1ccccc1)NC(=O)[C@H](Cc1c[nH]cn1)NC(=O)[C@H](CCCNC(=N)N)NC(=O)OCc1ccccc1` [Compound A-176] was tested, and the MIC (P. vulgaris ATCC 6896; H2O) was > 512 µg/mL, the MIC (P. vulgaris ATCC 6896; water additive DMSO) was > 512 µg/mL and the MIC (P. vulgaris ATCC 6896; water additive EtOH) was > 512 µg/mL. For the same compound, the “effect on proliferation, in words” value [1] was “negative impact”, the “antiproliferative effect (decrease vs control)” value [1, 5] was “up to 50%” and the “cytotoxicity (LDH)” value [2] was “exceeding 50%”. It also gave an MIC (S. schleiferi c.i.; H2O) of 16 µg/mL (≈ 21.7 µM), an MBC (S. schleiferi c.i.; water additive EtOH) of 32 µg/mL (≈ 43.5 µM) and an MIC (S. schleiferi c.i.; water additive EtOH) of 16 µg/mL (≈ 21.7 µM). The MBC (E. faecalis c.i.; H2O) was 512 µg/mL (≈ 696 µM), the MIC (E. faecalis c.i.; H2O) was 512 µg/mL (≈ 696 µM) and the MIC (E. faecalis c.i.; water additive DMSO) was > 512 µg/mL. The MBC (E. faecalis c.i.; water additive EtOH) was 512 µg/mL (≈ 696 µM), the MIC (E. faecalis c.i.; water additive EtOH) was 256 µg/mL (≈ 348 µM) and the “effect on proliferation, in words” value [3] was “negative impact”. For the same compound, the “antiproliferative effect (decrease vs control)” value [3, 5] was “up to 50%”, the MIC (S. mutans c.i.; H2O) was 32 µg/mL (≈ 43.5 µM) and the MIC (S. mutans c.i.; water additive EtOH) was 32 µg/mL (≈ 43.5 µM). It also gave an MIC (P. aeruginosa ATCC 10145; H2O) of 256 µg/mL (≈ 348 µM), an MBC (P. aeruginosa ATCC 10145; water additive DMSO) of 256 µg/mL (≈ 348 µM) and an MIC (P. aeruginosa ATCC 10145; water additive DMSO) of 256 µg/mL (≈ 348 µM). The MBC (P. aeruginosa ATCC 10145; water additive EtOH) was 256 µg/mL (≈ 348 µM), the MIC (P. aeruginosa ATCC 10145; water additive EtOH) was 256 µg/mL (≈ 348 µM) and the MIC ([4]; H2O) was > 512 µg/mL. The MIC ([4]; water additive DMSO) was > 512 µg/mL, the MIC ([4]; water additive EtOH) was > 512 µg/mL and the MIC (S. aureus ATCC 43300; H2O) was 32 µg/mL (≈ 43.5 µM). The MIC (S. aureus ATCC 43300; water additive DMSO) was 32 µg/mL (≈ 43.5 µM), the MIC (S. aureus ATCC 43300; water additive EtOH) was 32 µg/mL (≈ 43.5 µM) and the MBC (S. pyogenes ATCC 19615; H2O) was 32 µg/mL (≈ 43.5 µM). It also gave an MIC (S. pyogenes ATCC 19615; H2O) of 16 µg/mL (≈ 21.7 µM), an MIC (S. pyogenes ATCC 19615; water additive DMSO) of 16 µg/mL (≈ 21.7 µM) and an MBC (S. pyogenes ATCC 19615; water additive EtOH) of 32 µg/mL (≈ 43.5 µM). The MIC (S. pyogenes ATCC 19615; water additive EtOH) was 16 µg/mL (≈ 21.7 µM), the MBC (E. coli ATCC 25922; H2O) was 256 µg/mL (≈ 348 µM) and the MIC (E. coli ATCC 25922; H2O) was 256 µg/mL (≈ 348 µM). The MIC (E. coli ATCC 25922; water additive DMSO) was > 512 µg/mL and the MIC (E. coli ATCC 25922; water additive EtOH) was 512 µg/mL (≈ 696 µM).

From paper PMC12332667, “Role of Structural Modifications in Peptidomimetic Compounds as Potential Antimicrobial Agents against Staphylococcus aureus and Streptococcus pyogenes: Balancing Bioavailability, Safety, and Antimicrobial Activity” (ACS Omega, 2025)
